Measurements as given in patent publication US20260183269A1, “PHARMACEUTICAL COMPOSITION FOR PREVENTION OR TREATMENT OF DRUG-RELATED PEPTIC ULCER COMPRISING ZASTAPRAZAN OR PHARMACEUTICALLY ACCEPTABLE SALT THEREOF” (priority 2022, published 2026).
Each block holds one compound with its values, some of them ahead of it.

Experiments:
[1] = Clinical PK interaction, PART 1: zastaprazan and aceclofenac in healthy subjects; type: in vivo, human (healthy subjects); conditions: for Cmax / AUC(0-t): human, oral; for Cmax: n = 22, plasma, mean ± SD; for AUC(0-t): plasma, n = 22, mean ± SD
Procedure: (§1) Zastaprazan may be used not only for acid-related gastric diseases but also for preventing gastric damage caused by NSAIDs.
(§2) • JP-1366, 20 mg 2 capsules (zastaprazan citrate salt 40 mg)
• Aertal tablet (aceclofenac 100 mg)
Subjects who volunteered for PART 1 were assigned a subject number on the day before the first clinical trial drug administration (−1 d) of Period 1, and then administered one aceclofenac tablet on 1 d of Period 1, administered two JP-1366 capsules on 4 d to 8 d of Period 2, and co-administered two JP-1366 capsules and one aceclofenac tablet on 9 d of Period 3. Blood samples were collected from each subject at a designated time for the PK evaluation of the clinical trial drug, and all subjects underwent safety evaluation according to the designated schedule.
(§3) Blood samples were collected at designated times for the PK evaluation of zastaprazan (JP-1366).

[2] = Clinical PK interaction, PART 2: zastaprazan and meloxicam in healthy subjects; type: in vivo, human (healthy subjects)
Procedure: as §1, §2
• Mobic capsule 15 mg (meloxicam 15 mg)
Subjects who volunteered for PART 2 were assigned a subject number on the day before the first clinical trial drug administration (−1 d) of Period 1, and then administered two JP-1366 capsules on 1 d to 5 d of Period 1, administered one meloxicam capsule on 15 d to 19 d of Period 2, and co-administered two JP-1366 capsules and one meloxicam capsule on 22 d to 26 d of Period 3. Blood samples were collected from each subject at a designated time for the PK evaluation of the clinical trial drug, and all subjects underwent safety evaluation according to the designated schedule.
as §3

[3] = system: rat gastric damage model induced by naproxen; assay: Antiulcer activity in naproxen-induced acute peptic ulcer (gastric damage) rat model; type: in vivo, Male Sprague-Dawley (SD) rat
Procedure: [table] […] The dose for each individual was converted based on the body weight before administration, and is administered orally in a dosage of 5 ml per kg of body weight. […] Administration frequency and administration period: Once a day for five days (a total of 5 times) After the test, the gastric damage by the test substance was evaluated using the ulcer index. […] The removed stomach was incised along the greater curvature, the contents are removed, and the incised stomach was washed cleanly with saline solution, spread out well with a cotton swab, fixed with pins, and then photographed. The gastric damage area and the total stomach area were measured from the photographed stomach using an image program (Leica Application Suite V4), and the ulcer index was calculated as Ulcer index (%)=Damage area (mm^2)/Total area (mm^2)×100. The experimental results were statistically analyzed through Mann-Whitney analysis using a commercial statistical processing program (IBM SPSS Statistics version 25.0).

clinical = type: in vivo, human (healthy subjects)
Procedure: as §2
Blood samples were collected from each subject at a designated time for the PK evaluation of the clinical trial drug, and all subjects underwent safety evaluation according to the designated schedule.
as §3

[4] = Safety evaluation of zastaprazan with aceclofenac, meloxicam, or naproxen in healthy subjects; type: in vivo, human (healthy subjects); conditions: zastaprazan 40 mg alone and co-administered with aceclofenac 100 mg, meloxicam 15 mg or naproxen 500 mg
Source text: Zastaprazan may be used not only for acid-related gastric diseases but also for preventing gastric damage caused by NSAIDs. […] Blood samples were collected from each subject at a designated time for the PK evaluation of the clinical trial drug, and all subjects underwent safety evaluation according to the designated schedule. All subjects who completed the clinical trial underwent a post-study visit on 14 d to 20 d, including vital sign measurement, physical examination, adverse reaction check, confirmation of prior/concurrent medication, clinical laboratory tests, and electrocardiography. […] Blood samples were collected from each subject at a designated time for the PK evaluation of the clinical trial drug, and all subjects underwent safety evaluation according to the designated schedule. All subjects who completed the clinical trial underwent a post-study visit on 31 d to 37 d, including vital sign measurement, physical examination, adverse reaction check, confirmation of prior/concurrent medication, clinical laboratory tests, and electrocardiography. […] Blood samples were collected from each subject at a designated time for the PK evaluation of the clinical trial drug, and all subjects underwent safety evaluation according to the designated schedule. […]

Cmax ([1]; A (aceclofenac 100 mg alone), read-out: aceclofenac Cmax, SS): 10.1 ± 3.16 µg/mL | Cmax ([1]; Z + A (zastaprazan 40 mg and aceclofenac 100 mg), read-out: aceclofenac Cmax, SS): 11.8 ± 2.56 µg/mL | AUC(0-t) ([1]; A (aceclofenac 100 mg alone), read-out: aceclofenac AUCT, SS): 20.4 ± 4.87 µg·h/mL | AUC(0-t) ([1]; Z + A (zastaprazan 40 mg and aceclofenac 100 mg), read-out: aceclofenac AUCT, SS): 20.8 ± 3.84 µg·h/mL
SMILES: O=C(O)COC(=O)Cc1ccccc1Nc1c(Cl)cccc1Cl [Aceclofenac, aceclofenac, reference compound]

AUC(0-t) ([2]; human, in vivo, oral, M (meloxicam 15 mg alone), n = 22, mean ± SD, read-out: meloxicam AUCT, SS): 41.8 ± 16.4 µg·h/mL | AUC(0-t) ([2]; human, in vivo, oral, Z + M (zastaprazan 40 mg and meloxicam 15 mg), n = 22, mean ± SD, read-out: meloxicam AUCT, SS): 44.1 ± 18.8 µg·h/mL | Cmax ([2]; human, oral, M (meloxicam 15 mg alone), n = 22, plasma, mean ± SD, read-out: meloxicam Cmax, SS): 2.48 ± 0.88 µg/mL | Cmax ([2]; human, oral, Z + M (zastaprazan 40 mg and meloxicam 15 mg), n = 22, plasma, mean ± SD, read-out: meloxicam Cmax, SS): 2.64 ± 0.92 µg/mL
SMILES: Cc1cnc(NC(=O)C2=C(O)c3ccccc3S(=O)(=O)N2C)s1 [Meloxicam, meloxicam, reference compound]

geometric mean ratio (GMR) [90% CI] of zastaprazan AUCT,SS ([1]; Z+A to Z): 0.9490 (0.9096 to 0.9902) | geometric mean ratio (GMR) [90% CI] of zastaprazan Cmax,SS ([1]; Z+A to Z): 1.0868 (0.9554 to 1.2362) | Cmax ([1]; Z (zastaprazan 40 mg alone), read-out: zastaprazan Cmax, SS): 0.242 ± 0.084 µg/mL | AUC(0-t) ([1]; Z (zastaprazan 40 mg alone), read-out: zastaprazan AUCT, SS): 1.54 ± 0.724 µg·h/mL | AUC(0-t) ([1]; Z + A (zastaprazan 40 mg and aceclofenac 100 mg), read-out: zastaprazan AUCT, SS): 1.44 ± 0.627 µg·h/mL | GMR [90% CI] of zastaprazan AUCT,SS ([2]; human, in vivo): 1.3332 (1.1494 to 1.5463) | AUC(0-t) ([2]; human, in vivo, 40 mg): 1.12 ± 0.534 µg·h/mL | Cmax ([2]; human, in vivo, 40 mg): 0.237 ± 0.0728 µg/mL | AUC(0-t) (clinical; human, in vivo, oral, Z (zastaprazan 40 mg alone), n = 22, mean ± SD, read-out: zastaprazan AUCT, SS): 1.38 ± 0.695 µg·h/mL | Cmax (clinical; human, oral, Z (zastaprazan 40 mg alone), n = 22, plasma, mean ± SD, read-out: zastaprazan Cmax, SS): 0.264 ± 0.0885 µg/mL
SMILES: Cc1cccc(C)c1CNc1cc(C(=O)N2CCC2)cn2c(C)c(C)nc12.O=C(O)CC(O)(CC(=O)O)C(=O)O [Zastaprazan, azetidin-1-yl{8-[(2,6-dimethylbenzyl)amino]-2,3-dimethylimidazo[1,2-a]pyridin-6-yl}methanone citrate salt]
ulcer area (antiulcer activity), FIG. 1 ([3]; JP-1366 2 mg/kg oral once a day for five days with naproxen 40 mg/kg, non-fasting rats, stomach removed 4 h after last naproxen): rapid decrease in the ulcer area | antiulcer efficacy compared with esomeprazole ([3]; JP-1366 2 mg/kg vs esomeprazole 2 mg/kg oral, once a day for five days with naproxen 40 mg/kg): superior to that of the control substance, esomeprazole | PK interaction between zastaprazan and aceclofenac ([1]; summary of PART 1): No clinically significant PK interactions | PK interaction between zastaprazan and meloxicam ([2]; summary of PART 2): No clinically significant PK interactions | PK interaction between zastaprazan and naproxen (clinical; summary of PART 3): No clinically significant PK interactions | safety [4]: no safety concerns
